In ChEMBL document CHEMBL5055685, “Discovery of the First Potent IDO1/IDO2 Dual Inhibitors: A Promising Strategy for Cancer Immunotherapy” (J Med Chem, 2021):
Activity calls are given as the source filed them. The calls are words filed in the database; no cut-off is given here.

What was measured:
[1] = target: Serine/threonine-protein kinase TAO2 (Homo sapiens) (UniProt Q9UL54); experiment: Inhibition of TAOK2 (unknown origin) at 1 uM
[2] = target: Protein-tyrosine kinase 6 (Homo sapiens) (UniProt Q13882); experiment: Inhibition of BRK (unknown origin) at 1 uM
[3] = target: Receptor tyrosine-protein kinase erbB-4 (Homo sapiens) (UniProt Q15303); experiment: Inhibition of ERBB4 (unknown origin) at 1 uM
HCT-116 = experiment: Antitumor immunity in BALB/c mouse xenografted with human HCT-116 cells assessed as increase in TNFalpha in serum by […]; assay type: functional, cell-based
[4] = target: Dual specificity tyrosine-phosphorylation-regulated kinase 1A (Homo sapiens) (UniProt Q13627); experiment: Inhibition of DYRK1A (unknown origin) at 1 uM
[5] = target: LIM domain kinase 2 (Homo sapiens) (UniProt P53671); experiment: Inhibition of LIMK2 (unknown origin) at 1 uM
[6] = Protein binding in monkey plasma assessed as fraction unbound by equilibrium dialysis; assay type: ADME, cell-free, Macaca mulatta; details: rhesus monkey
Mus musculus [7] = experiment: In vivo inhibition of IDO1/IDO2 in BALB/c mouse xenografted with human HCT-116 cells assessed as reduction in KYN level in serum by […]; assay type: functional, organism-based
[8] = target: Citron Rho-interacting kinase (Homo sapiens) (UniProt O14578); experiment: Inhibition of STK21 (unknown origin) at 1 uM
[9] = target: Serine/threonine-protein kinase 24 (Homo sapiens) (UniProt Q9Y6E0); experiment: Inhibition of MST3 (unknown origin) at 1 uM
[10] = target: cGMP-dependent protein kinase 1 (Homo sapiens) (UniProt Q13976); experiment: Inhibition of PKG1beta (unknown origin) at 1 uM
[11] = target: Serine/threonine-protein kinase SBK1 (Homo sapiens) (UniProt Q52WX2); experiment: Inhibition of SBK1 (unknown origin) at 1 uM
[12] = target: SRSF protein kinase 3 (Homo sapiens) (UniProt Q9UPE1); experiment: Inhibition of MSSK1 (unknown origin) at 1 uM
[13] = Half life in rat liver microsomes; assay type: ADME, Microsome
[14] = target: Serine/threonine-protein kinase Sgk2 (Homo sapiens) (UniProt Q9HBY8); experiment: Inhibition of SGK2 (unknown origin) at 1 uM
[15] = target: Mitogen-activated protein kinase kinase kinase 6 (Homo sapiens) (UniProt O95382); experiment: Inhibition of MEKK6 (unknown origin) at 1 uM
[16] = target: Calcium/calmodulin-dependent protein kinase type II subunit delta (Homo sapiens) (UniProt Q13557); experiment: Inhibition of CAMK2D (unknown origin) at 1 uM
[17] = target: Epidermal growth factor receptor (Homo sapiens) (UniProt P00533); experiment: Inhibition of EGFR (unknown origin) at 1 uM
[18] = target: CDK1/Cyclin E (Homo sapiens) (UniProt P06493+P24864); experiment: Inhibition of CDK1/cyclinE (unknown origin) at 1 uM; assay type: protein-complex assay
[19] = Half life in mouse liver microsomes; assay type: ADME, Microsome
[20] = target: Aryl hydrocarbon receptor (Homo sapiens, UniProt P35869); experiment: Activation of AhR (unknown origin) assessed as effect on CYP1A1 mRNA expression measured after 24 hrs by quantitative RT-PCR analysis; assay type: ADME
[21] = target: Tyrosine-protein kinase CSK (Homo sapiens) (UniProt P41240); experiment: Inhibition of CSK (unknown origin) at 1 uM
[22] = target: Proto-oncogene tyrosine-protein kinase Src (Homo sapiens) (UniProt P12931); experiment: Inhibition of c-SRC (unknown origin) at 1 uM
[23] = target: Aurora kinase A (Homo sapiens) (UniProt O14965); experiment: Inhibition of Aurora A (unknown origin) at 1 uM
[24] = target: MAP kinase-activated protein kinase 5 (Homo sapiens) (UniProt Q8IW41); experiment: Inhibition of MAPKAPK5 (unknown origin) at 1 uM
[25] = target: Serine/threonine-protein kinase DCLK2 (Homo sapiens) (UniProt Q8N568); experiment: Inhibition of DCAMKL2 (unknown origin) at 1 uM
[26] = target: Inhibitor of nuclear factor kappa-B kinase subunit alpha (Homo sapiens) (UniProt O15111); experiment: Inhibition of IKKalpha (unknown origin) at 1 uM
Mus musculus [27] = experiment: In vivo inhibition of TDO in BALB/c mouse xenografted with human HCT-116 cells assessed as suppression of TDO mRNA expression in tumor by quantitative RT-PCR analysis; assay type: functional, organism-based
[28] = target: Serine/threonine-protein kinase MARK2 (Homo sapiens) (UniProt Q7KZI7); experiment: Inhibition of MARK2 (unknown origin) at 1 uM
[29] = target: Megakaryocyte-associated tyrosine-protein kinase (Homo sapiens) (UniProt P42679); experiment: Inhibition of CTK (unknown origin) at 1 uM
[30] = target: Mitogen-activated protein kinase kinase kinase 11 (Homo sapiens) (UniProt Q16584); experiment: Inhibition of MLK3 (unknown origin) at 1 uM
[31] = target: cAMP-dependent protein kinase catalytic subunit beta (Homo sapiens) (UniProt P22694); experiment: Inhibition of PKAcb (unknown origin) at 1 uM
[32] = target: Protein kinase C gamma type (Homo sapiens) (UniProt P05129); experiment: Inhibition of PKCgamma (unknown origin)at 1 uM
[33] = target: Ribosomal protein S6 kinase alpha-3 (Homo sapiens) (UniProt P51812); experiment: Inhibition of RSK2 (unknown origin) at 1 uM
[34] = target: Mitogen-activated protein kinase kinase kinase 5 (Homo sapiens) (UniProt Q99683); experiment: Inhibition of ASK1 (unknown origin) at 1 uM
[35] = target: Serine/threonine-protein kinase B-raf (Homo sapiens) (UniProt P15056); experiment: Inhibition of BRAF (unknown origin) at 1 uM
[36] = target: Serine/threonine-protein kinase D3 (Homo sapiens) (UniProt O94806); experiment: Inhibition of PKCnu (unknown origin) at 1 uM
[37] = target: Cyclin-dependent kinase 2/cyclin E1 (Homo sapiens) (UniProt P24864+P24941); experiment: Inhibition of CDK2/cyclin-E (unknown origin) at 1 uM; assay type: protein-complex assay
[38] = target: Ephrin type-A receptor 7 (Homo sapiens) (UniProt Q15375); experiment: Inhibition of EPHA7 (unknown origin) at 1 uM
[39] = target: Tyrosine-protein kinase Fyn (Homo sapiens) (UniProt P06241); experiment: Inhibition of FYN (unknown origin) at 1 uM
[40] = AUC (0 to infinity) in Sprague-Dawley rat at 5 mg/kg, iv; assay type: ADME, organism-based; parameters: time infinity, dose 5 mg/kg, route iv; details: Sprague-Dawley, in vivo
[41] = target: Platelet-derived growth factor receptor alpha (Homo sapiens) (UniProt P16234); experiment: Inhibition of PDGFRalpha (unknown origin) at 1 uM
[42] = target: G protein-coupled receptor kinase 4 (Homo sapiens) (UniProt P32298); experiment: Inhibition of GRK4 (unknown origin) at 1 uM
[43] = target: Tyrosine-protein kinase Tec (Homo sapiens) (UniProt P42680); experiment: Inhibition of TEC (unknown origin) at 1 uM
Tyrosine-protein kinase Tec (Homo sapiens), sequence (P42680 whole entry): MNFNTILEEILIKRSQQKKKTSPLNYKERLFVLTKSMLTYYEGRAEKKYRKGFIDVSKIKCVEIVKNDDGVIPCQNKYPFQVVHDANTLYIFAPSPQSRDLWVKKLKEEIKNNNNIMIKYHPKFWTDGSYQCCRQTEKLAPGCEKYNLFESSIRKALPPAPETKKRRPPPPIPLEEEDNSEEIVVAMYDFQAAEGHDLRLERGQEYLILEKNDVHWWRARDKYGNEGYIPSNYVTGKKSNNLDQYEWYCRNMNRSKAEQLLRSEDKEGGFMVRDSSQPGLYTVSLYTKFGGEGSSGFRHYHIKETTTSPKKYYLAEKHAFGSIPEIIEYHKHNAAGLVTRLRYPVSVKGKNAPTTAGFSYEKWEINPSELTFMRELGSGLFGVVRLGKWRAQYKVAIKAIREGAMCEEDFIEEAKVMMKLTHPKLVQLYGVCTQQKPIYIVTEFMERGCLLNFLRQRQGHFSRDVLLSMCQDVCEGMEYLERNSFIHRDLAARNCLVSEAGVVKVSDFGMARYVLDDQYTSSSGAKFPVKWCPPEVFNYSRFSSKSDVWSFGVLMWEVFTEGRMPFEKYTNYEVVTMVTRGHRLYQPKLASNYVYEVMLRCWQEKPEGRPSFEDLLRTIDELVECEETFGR

Tyrosine-protein kinase CSK (Homo sapiens), sequence (P41240 2-450 limits assumed): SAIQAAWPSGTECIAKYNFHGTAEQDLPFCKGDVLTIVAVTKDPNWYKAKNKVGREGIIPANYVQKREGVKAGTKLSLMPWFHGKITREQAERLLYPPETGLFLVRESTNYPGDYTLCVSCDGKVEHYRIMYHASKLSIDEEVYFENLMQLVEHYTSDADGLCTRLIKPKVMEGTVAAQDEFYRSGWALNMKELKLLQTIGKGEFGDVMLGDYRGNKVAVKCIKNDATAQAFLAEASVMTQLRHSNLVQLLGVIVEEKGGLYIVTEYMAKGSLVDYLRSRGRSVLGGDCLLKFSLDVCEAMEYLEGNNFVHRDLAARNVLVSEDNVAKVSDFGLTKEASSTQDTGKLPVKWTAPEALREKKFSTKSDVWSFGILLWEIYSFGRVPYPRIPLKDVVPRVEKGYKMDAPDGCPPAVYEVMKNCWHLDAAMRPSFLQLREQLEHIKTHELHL
Proto-oncogene tyrosine-protein kinase Src (Homo sapiens), sequence (P12931 2-536 limits assumed): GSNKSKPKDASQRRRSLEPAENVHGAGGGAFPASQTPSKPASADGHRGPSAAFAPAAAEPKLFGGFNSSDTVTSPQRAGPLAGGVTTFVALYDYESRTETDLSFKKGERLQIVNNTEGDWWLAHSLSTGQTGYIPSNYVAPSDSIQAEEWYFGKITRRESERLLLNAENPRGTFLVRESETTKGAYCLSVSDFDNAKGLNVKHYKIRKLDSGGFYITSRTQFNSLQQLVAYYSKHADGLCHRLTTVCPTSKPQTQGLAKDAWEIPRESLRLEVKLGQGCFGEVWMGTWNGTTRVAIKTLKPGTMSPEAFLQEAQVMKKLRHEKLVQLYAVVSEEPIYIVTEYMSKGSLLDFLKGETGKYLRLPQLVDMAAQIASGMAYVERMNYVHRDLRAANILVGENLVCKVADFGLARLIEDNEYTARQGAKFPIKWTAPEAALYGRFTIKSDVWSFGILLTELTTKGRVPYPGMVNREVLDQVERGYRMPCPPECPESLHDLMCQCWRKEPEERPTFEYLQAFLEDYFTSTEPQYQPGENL
Tyrosine-protein kinase Fyn (Homo sapiens), sequence (P06241 2-537 limits assumed): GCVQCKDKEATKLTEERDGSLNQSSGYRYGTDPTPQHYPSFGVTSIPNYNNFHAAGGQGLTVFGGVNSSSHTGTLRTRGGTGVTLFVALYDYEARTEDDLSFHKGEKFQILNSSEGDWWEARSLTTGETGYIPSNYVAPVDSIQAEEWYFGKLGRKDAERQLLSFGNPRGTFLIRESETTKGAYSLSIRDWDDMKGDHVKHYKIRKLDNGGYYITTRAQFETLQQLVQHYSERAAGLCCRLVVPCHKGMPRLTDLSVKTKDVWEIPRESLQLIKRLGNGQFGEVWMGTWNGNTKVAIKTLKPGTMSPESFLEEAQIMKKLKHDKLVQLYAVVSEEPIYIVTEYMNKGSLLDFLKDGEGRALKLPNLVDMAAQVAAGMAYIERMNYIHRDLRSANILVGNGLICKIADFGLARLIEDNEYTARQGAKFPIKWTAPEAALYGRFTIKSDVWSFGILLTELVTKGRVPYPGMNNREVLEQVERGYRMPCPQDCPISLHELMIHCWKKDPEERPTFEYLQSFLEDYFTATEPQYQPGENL
MAP kinase-activated protein kinase 5 (Homo sapiens), sequence (Q8IW41 whole entry): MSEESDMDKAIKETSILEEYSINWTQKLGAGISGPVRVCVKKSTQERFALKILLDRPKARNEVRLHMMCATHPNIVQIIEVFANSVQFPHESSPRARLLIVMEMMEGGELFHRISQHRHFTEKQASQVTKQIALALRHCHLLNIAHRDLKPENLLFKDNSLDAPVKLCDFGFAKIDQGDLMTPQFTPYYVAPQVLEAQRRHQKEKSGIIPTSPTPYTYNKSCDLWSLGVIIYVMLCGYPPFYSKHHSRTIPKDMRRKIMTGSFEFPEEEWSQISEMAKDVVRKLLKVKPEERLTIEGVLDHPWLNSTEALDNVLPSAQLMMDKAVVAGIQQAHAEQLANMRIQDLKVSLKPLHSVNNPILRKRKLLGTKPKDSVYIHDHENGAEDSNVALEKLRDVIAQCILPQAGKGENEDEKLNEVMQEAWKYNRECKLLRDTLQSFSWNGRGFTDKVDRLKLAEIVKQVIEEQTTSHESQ
Serine/threonine-protein kinase MARK2 (Homo sapiens), sequence (Q7KZI7 whole entry): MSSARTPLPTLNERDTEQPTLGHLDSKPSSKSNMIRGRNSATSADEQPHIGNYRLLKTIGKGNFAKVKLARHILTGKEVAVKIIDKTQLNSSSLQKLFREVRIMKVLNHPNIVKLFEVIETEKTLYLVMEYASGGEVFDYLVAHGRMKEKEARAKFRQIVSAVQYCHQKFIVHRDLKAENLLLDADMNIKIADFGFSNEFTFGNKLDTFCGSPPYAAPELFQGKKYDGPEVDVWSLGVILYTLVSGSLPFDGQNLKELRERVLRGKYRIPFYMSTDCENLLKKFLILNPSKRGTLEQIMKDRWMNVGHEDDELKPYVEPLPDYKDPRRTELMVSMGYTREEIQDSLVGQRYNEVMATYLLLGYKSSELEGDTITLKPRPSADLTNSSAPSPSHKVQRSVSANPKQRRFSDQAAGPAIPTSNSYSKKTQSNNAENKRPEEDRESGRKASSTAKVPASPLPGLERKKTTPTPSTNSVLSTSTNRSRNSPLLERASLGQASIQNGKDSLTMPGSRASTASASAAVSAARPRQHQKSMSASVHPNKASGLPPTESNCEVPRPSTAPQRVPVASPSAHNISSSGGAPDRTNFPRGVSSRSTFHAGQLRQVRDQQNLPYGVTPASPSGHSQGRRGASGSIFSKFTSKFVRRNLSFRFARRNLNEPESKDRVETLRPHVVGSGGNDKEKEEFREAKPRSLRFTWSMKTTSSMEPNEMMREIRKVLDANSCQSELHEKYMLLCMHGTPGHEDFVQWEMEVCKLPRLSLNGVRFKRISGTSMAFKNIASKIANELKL
Serine/threonine-protein kinase SBK1 (Homo sapiens), sequence (Q52WX2 whole entry): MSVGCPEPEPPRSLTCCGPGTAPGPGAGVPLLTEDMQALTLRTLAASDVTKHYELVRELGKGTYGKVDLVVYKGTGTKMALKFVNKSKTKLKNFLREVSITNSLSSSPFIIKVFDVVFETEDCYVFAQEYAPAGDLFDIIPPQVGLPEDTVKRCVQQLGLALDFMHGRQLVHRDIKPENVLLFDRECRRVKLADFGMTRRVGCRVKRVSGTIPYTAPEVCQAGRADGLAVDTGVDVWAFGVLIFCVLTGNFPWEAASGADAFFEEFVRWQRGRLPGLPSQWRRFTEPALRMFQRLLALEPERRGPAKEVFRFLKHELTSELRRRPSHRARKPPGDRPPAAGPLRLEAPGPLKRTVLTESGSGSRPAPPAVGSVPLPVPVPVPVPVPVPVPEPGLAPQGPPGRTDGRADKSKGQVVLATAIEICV
Serine/threonine-protein kinase 24 (Homo sapiens), sequence (Q9Y6E0 whole entry, looked up): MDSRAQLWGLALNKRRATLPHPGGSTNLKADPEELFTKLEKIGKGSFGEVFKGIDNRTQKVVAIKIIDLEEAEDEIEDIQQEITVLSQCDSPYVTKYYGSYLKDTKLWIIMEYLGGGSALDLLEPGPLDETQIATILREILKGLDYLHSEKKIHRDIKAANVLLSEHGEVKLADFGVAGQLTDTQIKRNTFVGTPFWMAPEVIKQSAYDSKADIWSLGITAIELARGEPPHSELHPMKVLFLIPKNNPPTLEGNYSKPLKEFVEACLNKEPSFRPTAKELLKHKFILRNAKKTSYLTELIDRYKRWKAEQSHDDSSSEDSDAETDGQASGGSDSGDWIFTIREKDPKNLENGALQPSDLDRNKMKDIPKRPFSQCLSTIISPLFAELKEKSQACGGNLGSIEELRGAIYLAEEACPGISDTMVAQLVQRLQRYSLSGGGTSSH

OCCOCc1cn(CCNc2nonc2/C(=N/O)Nc2ccc(F)c(Br)c2)nn1
inhibition [1]: inactive | inhibition [2]: inactive | inhibition [3]: inactive | Activity (HCT-116): Active | inhibition [4]: inactive | inhibition [5]: inactive | fraction unbound [6]: 0.0763 | inhibition (Mus musculus [7]): Active | inhibition [8]: inactive | inhibition [9]: inactive | inhibition [10]: inactive | inhibition [11]: inactive | inhibition [12]: inactive | half-life [13]: 21.2 min | inhibition [14]: inactive | inhibition [15]: inactive | inhibition [16]: inactive | inhibition [17]: inactive | inhibition [18]: inactive | half-life [19]: 43.2 min | Activity [20]: Not Active | inhibition [21]: inactive | inhibition [22]: inactive | inhibition [23]: inactive | inhibition [24]: inactive | inhibition [25]: inactive | inhibition [26]: inactive | inhibition (Mus musculus [27]): inactive | inhibition [28]: inactive | inhibition [29]: inactive | inhibition [30]: inactive | inhibition [31]: inactive | inhibition [32]: inactive | inhibition [33]: inactive | inhibition [34]: inactive | inhibition [35]: inactive | inhibition [36]: inactive | inhibition [37]: inactive | inhibition [38]: inactive | inhibition [39]: inactive | AUC(0-inf) [40]: 3050 ng·h/mL | inhibition [41]: inactive | inhibition [42]: inactive | inhibition [43]: inactive
